The results in this text go back to PMC9120901 (The Journal of General Physiology, 2022).

What all share (assay type): cell-based
The target of test [1] is T1, ASIC3 (Rattus norvegicus, UniProt O35240).
T1 sequence (O35240 1-533): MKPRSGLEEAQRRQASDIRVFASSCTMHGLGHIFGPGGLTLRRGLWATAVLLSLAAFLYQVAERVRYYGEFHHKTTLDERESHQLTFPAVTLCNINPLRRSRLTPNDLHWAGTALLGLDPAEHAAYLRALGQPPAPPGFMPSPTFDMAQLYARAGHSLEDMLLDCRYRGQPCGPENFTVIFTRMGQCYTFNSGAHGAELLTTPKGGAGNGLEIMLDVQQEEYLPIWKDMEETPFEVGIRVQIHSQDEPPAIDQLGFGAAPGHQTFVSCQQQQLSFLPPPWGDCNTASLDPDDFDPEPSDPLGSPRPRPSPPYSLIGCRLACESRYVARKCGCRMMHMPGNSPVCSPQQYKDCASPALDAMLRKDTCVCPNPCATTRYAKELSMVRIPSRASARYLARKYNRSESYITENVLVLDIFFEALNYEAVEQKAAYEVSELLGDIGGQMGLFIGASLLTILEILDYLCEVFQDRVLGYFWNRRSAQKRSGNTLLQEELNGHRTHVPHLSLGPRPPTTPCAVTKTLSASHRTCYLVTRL
Briefly: whole-cell patch clamp, concentration dependence of shift of activation pH0.[…]. Background: In patch-clamp work, channel activity is measured electrically.

Test [2] concerns the target T1, ASIC3. Briefly: whole-cell patch clamp, shift of activation pH0.[…].
In test [3] the target is T1, ASIC3. Briefly: whole-cell patch clamp.

A word on the EC50: it is the concentration at which the effect is half-maximal. In the case of `CCCCC/C=C\C/C=C\C/C=C\C/C=C\CCCC(=O)O` [AA, arachidonic acid], the EC50 on ASIC3 [1] amounted to 11 ± 2 µM.
In the case of `CCCCC/C=C\C/C=C\C/C=C\C/C=C\CCCC(=O)NCC(=O)O` [AG, arachidonyl glycine], on ASIC3 [2], the EC50 came to 5.4 ± 1.12 µM.
For the compound `CC/C=C\C/C=C\C/C=C\C/C=C\C/C=C\CCCCCC(=O)O` [DPA, docosapentaenoic acid], on ASIC3 [3], the “whole-cell patch clamp; pH0.5 shift at 10 μM and concentration dependence at pH” value is reported as 0.27 ΔpH0.5 at 10 µM.
